Among the test systems are HS 578T breast; NCI-H522 lung; ACHN renal; OVCAR-4 ovarian; T-47D breast; HOP-62 NSCLC; KM12 colon; OVCAR-5 ovarian; EKVX NSCLC; COLO 205 colon; SNB-75 CNS; CCRF-CEM leukemia; IGROV1 ovarian; MCF7 breast; SF-539 CNS.
Common to all, as to test: NCI anticancer screen, dose series, 48 h

Data on 14 compounds can be found in PubChem BioAssay (NCI).

The structures appear in SMILES notation.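 Following 48 hours of exposure in 96-well plates, responses at five concentrations were used to interpolate endpoints linearly. At the GI50, growth is halved. Definition used: TGI = concentration required for complete inhibition of growth.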

Regarding `CC(Cc1ccc2c(c1)OCO2)N(C)C(=O)C1=CCN(C)CC1` (stereo unspecified), the TGI in the assay with HS 578T breast, with NCI-H522 lung, with ACHN renal, with OVCAR-4 ovarian, in the assay on T-47D breast and in the assay on HOP-62 NSCLC was above 100 µM each time. Besides, the TGI in the assay on KM12 colon, in the assay on OVCAR-5 ovarian, in the assay on EKVX NSCLC, in the assay on COLO 205 colon, with SNB-75 CNS and in the assay on CCRF-CEM leukemia was above 100 µM in each case. The TGI in the assay with IGROV1 ovarian and in the assay with MCF7 breast was above 100 µM in each case.

Turning to `S=C(Nc1cccc(C2(N3CCCCC3)CCCCC2)c1)Nc1cccc(C2(N3CCCCC3)CCCCC2)c1`, the TGI with HS 578T breast is above 100 µM; in the assay on NCI-H522 lung, 41 µM; in the assay on ACHN renal it was 54 µM; with OVCAR-4 ovarian it was above 100 µM; in the assay on T-47D breast it was 36.6 µM; in the assay on HOP-62 NSCLC it was above 100 µM. Moreover, the TGI in the assay on SF-539 CNS was 31.3 µM; in the assay on KM12 colon, 33.2 µM; in the assay on OVCAR-5 ovarian, above 100 µM; with EKVX NSCLC, above 100 µM; in the assay with COLO 205 colon, 37.6 µM; in the assay on SNB-75 CNS, 28.6 µM. For the same compound, the figures for the TGI in the assay with CCRF-CEM leukemia, in the assay with IGROV1 ovarian and in the assay on MCF7 breast were 34 µM, above 100 µM and 64.1 µM, respectively.

For the compound `CCCN(CCC)C(=O)c1c(Cl)c2cccnc2n2c(C)cnc12`, the TGI with HS 578T breast, in the assay with NCI-H522 lung, in the assay on ACHN renal, in the assay with OVCAR-4 ovarian, with T-47D breast and in the assay on HOP-62 NSCLC was above 100 µM each time. Further, the TGI in the assay with SF-539 CNS, in the assay with KM12 colon, with OVCAR-5 ovarian, in the assay on EKVX NSCLC, in the assay on COLO 205 colon and with SNB-75 CNS was above 100 µM each time. The TGI in the assay on CCRF-CEM leukemia, in the assay on IGROV1 ovarian and in the assay on MCF7 breast was above 100 µM throughout.

On to `Cc1ccc(N2C(=O)C(=O)N(/N=C3\C(=O)Nc4ccccc43)C2=S)cc1`, for which the TGI in the assay on HS 578T breast, in the assay with NCI-H522 lung, with ACHN renal, in the assay on T-47D breast, in the assay on HOP-62 NSCLC and in the assay on SF-539 CNS was above 100 µM in each case. Further, the TGI with KM12 colon, in the assay with OVCAR-5 ovarian, in the assay on EKVX NSCLC, in the assay on COLO 205 colon, in the assay on SNB-75 CNS and with CCRF-CEM leukemia was above 100 µM throughout. The TGI with IGROV1 ovarian and in the assay with MCF7 breast was above 100 µM each time.

As to `CC(=O)Oc1cc(S(=O)(=O)Nc2n[nH]c(N)n2)c(S)cc1Cl`, the TGI in the assay with HS 578T breast, in the assay with NCI-H522 lung, with ACHN renal, in the assay on OVCAR-4 ovarian, with T-47D breast and in the assay with HOP-62 NSCLC was above 100 µM each time. Moreover, the TGI with SF-539 CNS, in the assay with KM12 colon, in the assay with OVCAR-5 ovarian, in the assay on EKVX NSCLC, with COLO 205 colon and with CCRF-CEM leukemia was above 100 µM each time. Also, the TGI in the assay with IGROV1 ovarian and with MCF7 breast was above 100 µM in each case.

Consider `CC/C=C/C(/C=C/C[C@]1(CC)C[C@H](CC)[C@H](CC(=O)O)OO1)CC` (stereo partly specified), for which the TGI with HS 578T breast was 4.85 µM; in the assay on NCI-H522 lung it was 3.44 µM; in the assay with ACHN renal, 3.61 µM; in the assay with OVCAR-4 ovarian, 3 µM; in the assay on T-47D breast it was above 23.1 µM; in the assay on HOP-62 NSCLC, 3.5 µM. In addition, the TGI in the assay on SF-539 CNS stood at 4.07 µM; in the assay with KM12 colon, 3.68 µM; in the assay on OVCAR-5 ovarian, 7.61 µM; in the assay on EKVX NSCLC, 3.77 µM; in the assay on COLO 205 colon it was 3.86 µM; in the assay on SNB-75 CNS it was 15.4 µM. Further, the TGI is 1.95 µM in the assay on CCRF-CEM leukemia, 0.899 µM in the assay with IGROV1 ovarian and 6.62 µM in the assay with MCF7 breast.

Take `CC(=O)Nc1nnc(S(=O)(=O)NC(=S)Nc2ccc(Cl)cc2)s1`: the TGI in the assay on HS 578T breast, with NCI-H522 lung, in the assay with ACHN renal, in the assay with OVCAR-4 ovarian, with T-47D breast and in the assay on HOP-62 NSCLC was above 100 µM throughout. Also, the TGI in the assay on SF-539 CNS, in the assay on KM12 colon, with OVCAR-5 ovarian, in the assay with EKVX NSCLC, in the assay with COLO 205 colon and with SNB-75 CNS was above 100 µM throughout. The TGI in the assay with CCRF-CEM leukemia, in the assay on IGROV1 ovarian and with MCF7 breast was above 100 µM each time.

With `CCN1C(=O)CS/C1=N\NC(=O)CSc1nc2ccccc2c(=O)n1CC`, the TGI in the assay on HS 578T breast, with NCI-H522 lung, in the assay on ACHN renal, in the assay on OVCAR-4 ovarian, in the assay on T-47D breast and in the assay with HOP-62 NSCLC was above 100 µM throughout. For the same compound, the TGI with SF-539 CNS, with KM12 colon, in the assay on OVCAR-5 ovarian, in the assay with EKVX NSCLC, in the assay on COLO 205 colon and in the assay on SNB-75 CNS was above 100 µM each time. Moreover, the TGI in the assay on CCRF-CEM leukemia, in the assay with IGROV1 ovarian and in the assay on MCF7 breast was above 100 µM each time.

On to `CN(C)C(=O)Oc1ccc(C(=S)Nc2ccccc2)cc1Br`, for which the TGI with HS 578T breast is above 100 µM; in the assay on NCI-H522 lung it was 52.4 µM; with ACHN renal, above 100 µM; in the assay with OVCAR-4 ovarian it was above 100 µM; in the assay on T-47D breast, 80.9 µM; in the assay with HOP-62 NSCLC, above 100 µM. For the same compound, the TGI in the assay on SF-539 CNS was above 100 µM; in the assay with KM12 colon, 51.6 µM; in the assay with OVCAR-5 ovarian it was above 100 µM; in the assay on EKVX NSCLC, above 100 µM; with COLO 205 colon it was 55.3 µM; in the assay with CCRF-CEM leukemia, 48.6 µM. Besides, the TGI was 48.9 µM in the assay on IGROV1 ovarian and above 100 µM in the assay with MCF7 breast.

Take `CNc1ncnc2c1cnn2Cc1cn(CCCCO)nn1`: the TGI in the assay on HS 578T breast, in the assay with NCI-H522 lung, in the assay on ACHN renal, in the assay on OVCAR-4 ovarian, in the assay with T-47D breast and in the assay on HOP-62 NSCLC was above 100 µM throughout. The TGI in the assay on SF-539 CNS, in the assay with KM12 colon, in the assay with OVCAR-5 ovarian, with EKVX NSCLC, in the assay with COLO 205 colon and with CCRF-CEM leukemia was above 100 µM each time. Moreover, the TGI in the assay on IGROV1 ovarian and in the assay on MCF7 breast was above 100 µM throughout.

For `COc1cc2c(cc1OCCCCN1CCN(CCCCOc3cc4c(cc3OC)C(=O)N3CCC[C@H]3C=N4)CC1)N=C[C@@H]1CCCN1C2=O`, the TGI in the assay on HS 578T breast is above 100 µM; in the assay on NCI-H522 lung it was 1.49 µM; in the assay with ACHN renal it was above 100 µM; with OVCAR-4 ovarian, 12 µM; in the assay with T-47D breast, 3.53 µM; in the assay on HOP-62 NSCLC, above 42 µM. The TGI was determined as 0.0692 µM with SF-539 CNS; 0.204 µM in the assay with KM12 colon; 0.163 µM with OVCAR-5 ovarian; 7.85 µM in the assay on EKVX NSCLC; 0.0354 µM in the assay with COLO 205 colon; 41.6 µM in the assay on CCRF-CEM leukemia. This compound returned a TGI in the assay with MCF7 breast of 45 µM. Further, the GI50 with CCRF-CEM leukemia was below 10 nM.

Regarding `COc1ccccc1N1C(=O)CC(=O)N(C(=O)CCCCCCCCC(=O)N2C(=O)CC(=O)N(c3ccccc3OC)C2=S)C1=S`, the TGI in the assay on HS 578T breast, with NCI-H522 lung, in the assay on ACHN renal, with OVCAR-4 ovarian, with T-47D breast and in the assay on HOP-62 NSCLC was above 100 µM in each case. Further, the TGI with SF-539 CNS, in the assay with KM12 colon, in the assay on OVCAR-5 ovarian, with EKVX NSCLC, with COLO 205 colon and with SNB-75 CNS was above 100 µM throughout. Also, the TGI in the assay on CCRF-CEM leukemia and in the assay with MCF7 breast was above 100 µM in each case.

In the case of `COC(=O)[C@@H]1[C@H](O)CC[C@H]2[C@@]1(C)CC[C@@H](C)[C@]2(COC(C)=O)CC(=O)c1ccoc1`, the TGI in the assay on HS 578T breast, with NCI-H522 lung, with ACHN renal, in the assay on OVCAR-4 ovarian, with T-47D breast and in the assay with SF-539 CNS was above 50 µM in each case. The TGI in the assay with KM12 colon, with OVCAR-5 ovarian, with EKVX NSCLC, with COLO 205 colon, with SNB-75 CNS and with CCRF-CEM leukemia was above 50 µM each time. Besides, the TGI in the assay with IGROV1 ovarian and with MCF7 breast was above 50 µM each time.

With `CCOC(=O)NC(=S)NC(C)c1ccccc1` (stereo unspecified), the TGI with HS 578T breast, in the assay on NCI-H522 lung, with ACHN renal, with OVCAR-4 ovarian, in the assay on T-47D breast and in the assay on HOP-62 NSCLC was above 100 µM in each case. Moreover, the TGI in the assay on KM12 colon, with OVCAR-5 ovarian, with EKVX NSCLC, with COLO 205 colon, in the assay with SNB-75 CNS and in the assay on CCRF-CEM leukemia was above 100 µM throughout. Further, the TGI in the assay with IGROV1 ovarian and in the assay on MCF7 breast was above 100 µM in each case.
